Measurements taken from BindingDB's records for doi:10.1016/S0960-894X(97)00311-9 (n/a, 1997).

Assay: Inhibition of human platelet aggregation

Compound | IC50 [nM]
CC(C)[C@H](NC(=O)[C@H](CC(=O)O)NC(=O)CNC(=O)C=Cc1ccc(N=C(N)N)cc1)C(=O)O [(S)-2-((S)-3-Carboxy-2-{2-[(E)-3-(4-guanidino-phenyl)-acryloylamino]-acetylamino}-propionylamino)-3-methyl-butyric acid] | 6600
CC(C)[C@H](NC(=O)[C@H](CC(=O)O)NC(=O)CCNC(=O)C=Cc1ccc(N=C(N)N)cc1)C(=O)O [(S)-2-((S)-3-Carboxy-2-{3-[(E)-3-(4-guanidino-phenyl)-acryloylamino]-propionylamino}-propionylamino)-3-methyl-butyric acid] | 2000
CC(C)[C@H](NC(=O)[C@H](CC(=O)O)NC(=O)CCN(C)C(=O)C=Cc1ccc(N=C(N)N)cc1)C(=O)O [(S)-2-[(S)-3-Carboxy-2-(3-{[(E)-3-(4-guanidino-phenyl)-acryloyl]-methyl-amino}-propionylamino)-propionylamino]-3-methyl-butyric acid] | 500
CCN(CCC(=O)N[C@@H](CC(=O)O)C(=O)N[C@H](C(=O)O)C(C)C)C(=O)C=Cc1ccc(N=C(N)N)cc1 [(S)-2-[(S)-3-Carboxy-2-(3-{ethyl-[(E)-3-(4-guanidino-phenyl)-acryloyl]-amino}-propionylamino)-propionylamino]-3-methyl-butyric acid] | 410
CC(C)[C@H](NC(=O)[C@H](CC(=O)O)NC(=O)[C@@H]1CCCN(C(=O)C=Cc2ccc(N=C(N)N)cc2)C1)C(=O)O [(S)-2-[(S)-3-Carboxy-2-({(R)-1-[(E)-3-(4-guanidino-phenyl)-acryloyl]-piperidine-3-carbonyl}-amino)-propionylamino]-3-methyl-butyric acid] | 180
CC(C)[C@H](NC(=O)[C@H](CC(=O)O)NC(=O)[C@@H]1CCN(C(=O)C=Cc2ccc(N=C(N)N)cc2)C1)C(=O)O [(S)-2-[(S)-3-Carboxy-2-({(R)-1-[(E)-3-(4-guanidino-phenyl)-acryloyl]-pyrrolidine-3-carbonyl}-amino)-propionylamino]-3-methyl-butyric acid] | 65
CC(C)[C@H](NC(=O)[C@H](CC(=O)O)NC(=O)[C@H]1CCN(C(=O)C=Cc2ccc(N=C(N)N)cc2)C1)C(=O)O [(S)-2-[(S)-3-Carboxy-2-({(S)-1-[(E)-3-(4-guanidino-phenyl)-acryloyl]-pyrrolidine-3-carbonyl}-amino)-propionylamino]-3-methyl-butyric acid] | 3300

Second part, the molecule after the results:

IC50 [nM] | Compound
25000 | CC(C)[C@H](NC(=O)[C@H](CC(=O)O)NC(=O)C[C@H]1CCCN1C(=O)C=Cc1ccc(N=C(N)N)cc1)C(=O)O [(S)-2-[(S)-3-Carboxy-2-(2-{(R)-1-[(E)-3-(4-guanidino-phenyl)-acryloyl]-pyrrolidin-2-yl}-acetylamino)-propionylamino]-3-methyl-butyric acid]
1600 | CC(C)[C@H](NC(=O)[C@H](CC(=O)O)NC(=O)C[C@@H]1CCCCN1C(=O)C=Cc1ccc(N=C(N)N)cc1)C(=O)O [(S)-2-[(S)-3-Carboxy-2-(2-{(S)-1-[(E)-3-(4-guanidino-phenyl)-acryloyl]-piperidin-2-yl}-acetylamino)-propionylamino]-3-methyl-butyric acid]
96 | CC(C)[C@H](NC(=O)[C@H](CC(=O)O)NC(=O)C[C@@H]1CCCN1C(=O)C=Cc1ccc(N=C(N)N)cc1)C(=O)O [(S)-2-[(S)-3-Carboxy-2-(2-{(S)-1-[(E)-3-(4-guanidino-phenyl)-acryloyl]-pyrrolidin-2-yl}-acetylamino)-propionylamino]-3-methyl-butyric acid]
620 | CC(C)[C@H](NC(=O)[C@H](CC(=O)O)NC(=O)[C@H]1CCCN(C(=O)C=Cc2ccc(N=C(N)N)cc2)C1)C(=O)O [(S)-2-[(S)-3-Carboxy-2-({(S)-1-[(E)-3-(4-guanidino-phenyl)-acryloyl]-piperidine-3-carbonyl}-amino)-propionylamino]-3-methyl-butyric acid]
